Results on 31 compounds are retold here after patent US8183263B2 (priority 2007, dated 2012).

Each structure is given as a SMILES string.

In the experiment the test system is HCV replicon. Put plainly: HCV replicon replication assay (NPT level by captured ELISA). It is filed as cell-based. The note with it: Hepatitis C virus, 72 h; Huh-7 HCV replicon-containing cells, three days incubation; read-out: Activity (inhibition of HCV replicon replication). The method, boiled down: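 Huh-7 cells carrying HCV subgenomic replicon (NS3–NS5B, neo reporter) treated 3 days at 37 °C with 6 concentrations from 10 to 0.03 micromolar in G418-free medium, equal DMSO across wells. Replication measured on day four as NPTII level by in-cell captured ELISA on fixed cells; interferon alpha as positive control.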
(Replicon systems follow genome replication, usually without infectious particles.)
Consider `CCCCCCCCOc1ccc(Nc2nc(-c3cccnc3)cs2)cc1S(C)(=O)=O` [Cmp 151, N-(3-(methylsulfonyl)-4-(octyloxy)phenyl)-4-(pyridin-3-yl)thiazol-2-amine], for which the EC50 is < 1000 nM.
In the case of `Fc1sc(Nc2ccc(OCCCCc3cccs3)c(C(F)(F)F)c2)nc1-c1cccnc1` [Cmp 90, 5-fluoro-4-(pyridin-3-yl)-N-(4-(4-(thiophen-2-yl)butoxy)-3-(trifluoromethyl)phenyl)thiazol-2-amine] it was < 1000 nM; in that of `FC(F)(F)c1cc(Nc2nc(-c3cccnc3)cs2)ccc1OCCCCCc1ccccc1` [Cmp 21], < 1000 nM; in that of `CCCCCCCCOc1ccc(Nc2nc(-c3cccnc3)cs2)cc1C(=O)OC` [Cmp 154, methyl 2-(octyloxy)-5-(4-(pyridin-3-yl)thiazol-2-ylamino)benzoate], < 1000 nM.
In the case of `CCCCCCCCc1ccc(Nc2nc(-c3cnc(OC)nc3)c(F)s2)cc1C(F)(F)F` [Cmp 36, 5-fluoro-4-(2-methoxypyrimidin-5-yl)-N-(4-octyl-3-(trifluoromethyl)phenyl)thiazol-2-amine] it was < 1000 nM.
To `CCCCCCCCOc1ccc(Nc2nc(-c3ccc[n+](C)c3)cs2)cc1C(F)(F)F` [Cmp 142, 1-methyl-3-(2-(4-(octyloxy)-3-(trifluoromethyl)phenylamino)thiazol-4-yl)pyridinium] belongs 1000 to 10000 nM; to `Cc1ccc(Nc2nc(-c3ccc(F)cc3)cs2)cc1OCCOc1ccccc1` [Cmp 41], < 1000 nM.
As to `CCCCCCCCOc1ccc(Nc2ncc(Br)s2)cc1C(F)(F)F` [Cmp 143, 5-bromo-N-(4-(octyloxy)-3-(trifluoromethyl)phenyl)thiazol-2-amine], the EC50 is < 1000 nM.
To `O=c1cc(-c2ccccc2)oc2ccc(Nc3nc(-c4cccnc4)cs3)cc12` [Cmp 148, 2-phenyl-6-(4-(pyridin-3-yl)thiazol-2-ylamino)-4H-chromen-4-one] belongs > 10000 nM; to `CCCCCCCCOc1cc(Nc2nc(-c3ccc(F)cc3)cs2)ccc1C` [Cmp 45, 4-(4-fluorophenyl)-N-(4-methyl-3-(octyloxy)phenyl)thiazol-2-amine], < 1000 nM; to `COc1ncc(-c2nc(Nc3ccc(Oc4ccc(C#N)cc4)c(C(F)(F)F)c3)sc2F)cn1` [Cmp 96, 4-(4-(5-fluoro-4-(2-methoxypyrimidin-5-yl)thiazol-2-ylamino)-2-(trifluoromethyl)phenoxy)benzonitrile], < 1000 nM.
In the case of `Cc1ccc(OCCCCc2ccc(Nc3nc(-c4cccnc4)cs3)cc2C(F)(F)F)cc1` [Cmp 117, 4-(pyridin-3-yl)-N-(4-(4-(p-tolyloxy)butyl)-3-(trifluoromethyl)phenyl)thiazol-2-amine] it was < 1000 nM; in that of `CCc1ccc(Oc2ccc(Nc3nc(-c4cccnc4)c(F)s3)cc2C(F)(F)F)cc1` [Cmp 98, N-(4-(4-ethylphenoxy)-3-(trifluoromethyl)phenyl)-5-fluoro-4-(pyridin-3-yl)thiazol-2-amine], < 1000 nM; in that of `CCCCCCCCc1c(F)cc(Nc2nc(-c3cccnc3)c(F)s2)cc1F` [Cmp 138, N-(3,5-difluoro-4-octylphenyl)-5-fluoro-4-(pyridin-3-yl)thiazol-2-amine], < 1000 nM.
To `CCCCCCCCc1ccc(Nc2nc(-c3ccc(F)nc3)c(F)s2)cc1C(F)(F)F` [Cmp 174, 5-fluoro-4-(6-fluoropyridin-3-yl)-N-(4-octyl-3-(trifluoromethyl)phenyl)thiazol-2-amine] belongs < 1000 nM; to `Fc1ccc(CCCCCc2ccc(Nc3nc(-c4cccnc4)cs3)cc2C(F)(F)F)cc1` [Cmp 216, N-(4-(5-(4-fluorophenyl)pentyl)-3-(trifluoromethyl)phenyl)-4-(pyridin-3-yl)thiazol-2-amine], < 1000 nM; to `CCCCCCCCc1ccc(Nc2nc(-c3ccc4nncn4c3)cs2)cc1C(F)(F)F` [Cmp 178, 4-([1,2,4]triazolo[4,3-a]pyridin-6-yl)-N-(4-octyl-3-(trifluoromethyl)phenyl)thiazol-2-amine], < 1000 nM.
Consider `CCCCCCCCOc1ccc(Nc2nc(-c3cnc4[nH]c(=O)[nH]c4c3)cs2)cc1C(F)(F)F` [Cmp 187, 6-(2-(4-(octyloxy)-3-(trifluoromethyl)phenylamino)thiazol-4-yl)-1H-imidazo[4,5-b]pyridin-2(3H)-one], for which the EC50 was < 1000 nM.
On to `Cc1ccc(Nc2nc(-c3cccnc3)c(F)s2)cc1OCCOc1ccccc1` [Cmp 58, 5-fluoro-N-(4-methyl-3-(2-phenoxyethoxy)phenyl)-4-(pyridin-3-yl)thiazol-2-amine], for which the EC50 was < 1000 nM.
On to `CCCCCCCCOc1ccc(Nc2nc(-c3cccnc3)c(CN(C)C)s2)cc1C(F)(F)F` [Cmp 157, 5-((dimethylamino)methyl)-N-(4-(octyloxy)-3-(trifluoromethyl)phenyl)-4-(pyridin-3-yl)thiazol-2-amine], for which the EC50 lay within 1000 to 10000 nM.
For `CCCCCCCCOc1ccc(Nc2nc(-c3ccc(O)c(C(N)=O)c3)c(Cl)s2)cc1C(F)(F)F` [Cmp 186, 5-(5-chloro-2-(4-(octyloxy)-3-(trifluoromethyl)phenylamino)thiazol-4-yl)-2-hydroxybenzamide], the EC50 was < 1000 nM.
To `CC(=O)c1cc(Nc2nc(-c3cccnc3)c(F)s2)ccc1Oc1ccc(Cl)cc1` [Cmp 130, 1-(2-(4-chlorophenoxy)-5-(5-fluoro-4-(pyridin-3-yl)thiazol-2-ylamino)phenyl)ethanone] belongs < 1000 nM; to `Cc1ccc(Nc2nc(-c3cccnc3)cs2)cc1OCCOc1ccccc1` [Cmp 37, N-(4-methyl-3-(2-phenoxyethoxy)phenyl)-4-(pyridin-3-yl)thiazol-2-amine], < 1000 nM; to `CCCCCc1nc2cc(Nc3nc(-c4cccnc4)c(F)s3)ccc2o1` [Cmp 65, N-(5-fluoro-4-(pyridin-3-yl)thiazol-2-yl)-2-pentylbenzo[d]oxazol-5-amine], < 1000 nM.
For `N#Cc1ccc(Oc2ccc(Nc3nc(-c4cccnc4)c(F)s3)cc2C(F)(F)F)cc1` [Cmp 99, 4-(4-(5-fluoro-4-(pyridin-3-yl)thiazol-2-ylamino)-2-(trifluoromethyl)phenoxy)benzonitrile], the EC50 was < 1000 nM.
`c1ccc(CCc2cc3cc(Nc4nc(-c5cccnc5)cs4)ccc3o2)cc1` [Cmp 153, N-(2-phenethylbenzofuran-5-yl)-4-(pyridin-3-yl)thiazol-2-amine]: the EC50 was < 1000 nM.
To `Cc1ccccc1CCCCOc1ccc(Nc2nc(-c3cccnc3)cs2)cc1C(F)(F)F` [Cmp 22, 4-(pyridin-3-yl)-N-(4-(4-o-tolylbutoxy)-3-(trifluoromethyl)phenyl)thiazol-2-amine] belongs < 1000 nM; to `CCCCCCCCc1cc2cc(Nc3nc(-c4cccnc4)cs3)ccc2o1` [Cmp 106, N-(2-octylbenzofuran-5-yl)-4-(pyridin-3-yl)thiazol-2-amine], < 1000 nM.
In the case of `CCCCCOc1cc(Nc2nc(-c3cnc(OC)nc3)c(F)s2)ccc1C(F)(F)F` [Cmp 77, 5-fluoro-4-(2-methoxypyrimidin-5-yl)-N-(3-(pentyloxy)-4-(trifluoromethyl)phenyl)thiazol-2-amine] it was < 1000 nM.
In the case of `CCCCCOc1cc(Nc2nc(-c3cccnc3)c(F)s2)ccc1C` [Cmp 29] it was < 1000 nM.
For the compound `CCCCCCCCOc1ccc(Nc2nc(-c3cccnc3)c(Cl)s2)cc1C(C)=O` [Cmp 169, 1-(5-(5-chloro-4-(pyridin-3-yl)thiazol-2-ylamino)-2-(octyloxy)phenyl)ethanone], the EC50 is < 1000 nM.
